Data taken from PubChem BioAssay (NCI).
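The concentration for 50% growth inhibition is given as GI50. Definition used: TGI = concentration required for complete inhibition of growth.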

Columns and labels:
Assay in all cases: NCI-60 cell line screen, 384-well format; in the data active = GI50 below about 0.43 µM; inactive = the rest
[1] = tested on: 786-0 renal
[2] = tested on: A498 renal
[3] = tested on: A549 NSCLC
[4] = tested on: ACHN renal
[5] = tested on: BT-549 breast
[6] = tested on: CAKI-1 renal
[7] = tested on: CCRF-CEM leukemia
[8] = tested on: DU-145 prostate
[9] = tested on: EKVX NSCLC
[10] = tested on: HCT-116 colon
[11] = tested on: HCT-15 colon
[12] = tested on: HL-60(TB) leukemia
[13] = tested on: HOP-62 NSCLC
[14] = tested on: HOP-92 NSCLC
[15] = tested on: HS 578T breast
[16] = tested on: IGROV1 ovarian
[17] = tested on: KM12 colon
[18] = tested on: LOX IMVI melanoma
[19] = tested on: M14 melanoma
[20] = tested on: MALME-3M melanoma
[21] = tested on: MCF7 breast
[22] = tested on: MDA-MB-435 melanoma
[23] = tested on: MDA-MB-468 breast
[24] = tested on: MOLT-4 leukemia
[25] = tested on: NCI-H226 lung
[26] = tested on: NCI-H23 lung
[27] = tested on: NCI-H322M lung
[28] = tested on: NCI-H460 NSCLC
[29] = tested on: NCI-H522 lung
[30] = tested on: NCI/ADR-RES ovarian
[31] = tested on: OVCAR-3 ovarian
[32] = tested on: OVCAR-4 ovarian
[33] = tested on: OVCAR-5 ovarian
[34] = tested on: OVCAR-8 ovarian
[35] = tested on: PC-3 prostate
[36] = tested on: RPMI-8226 leukemia
[37] = tested on: RXF 393 renal
[38] = tested on: SF-268 CNS
[39] = tested on: SF-295 CNS
[40] = tested on: SF-539 CNS
[41] = tested on: SK-MEL-28 melanoma
[42] = tested on: SK-MEL-5 melanoma
[43] = tested on: SK-OV-3 ovarian
[44] = tested on: SN12C renal
[45] = tested on: SNB-19 CNS
[46] = tested on: SNB-75 CNS
[47] = tested on: SR leukemia
[48] = tested on: SW-620 colon
[49] = tested on: T-47D breast
[50] = tested on: TK-10 renal
[51] = tested on: U251 glioblastoma
[52] = tested on: UACC-257 melanoma
[53] = tested on: UACC-62 melanoma
[54] = tested on: UO-31 renal

COc1ccc(CN2C3CC2CN(c2ccc(-c4cc(OCC(C)(C)O)cn5ncc(C#N)c45)cn2)C3)cn1
9.56 µM: TGI [39]
> 50.1 µM: TGI [15]
3.13 µM: TGI [24]
7.68 µM: TGI [5]
7.91 µM: TGI [37]
7.29 µM: TGI [46]
38.1 µM: TGI [14]
> 60 µM: TGI [16]
3.24 µM: TGI [47]
> 31.6 µM: TGI [3] | TGI [9] | TGI [11] | TGI [13] | TGI [21] | TGI [29] | TGI [34] | TGI [36] | TGI [42] | TGI [43] | TGI [49] | TGI [50] | TGI [51] | TGI [52]
9.04 µM: TGI [23]
3.76 µM: TGI [7]
15.4 µM: TGI [25]
> 45.8 µM: TGI [44]
> 100 µM: TGI [1] | TGI [2] | TGI [4] | TGI [6] | TGI [8] | TGI [10] | TGI [17] | TGI [18] | TGI [19] | TGI [20] | TGI [22] | TGI [27] | TGI [28] | TGI [30] | TGI [31] | TGI [32] | TGI [33] | TGI [35] | TGI [38] | TGI [41] | TGI [45] | TGI [48] | TGI [53] | TGI [54]
6.86 µM: TGI [40]
inactive: GI50 [1] 57.3 µM | GI50 [2] > 38.3 µM | GI50 [3] 7.53 µM | GI50 [4] 25.4 µM | GI50 [5] 1.87 µM | GI50 [6] 5.02 µM | GI50 [7] 1.99 µM | GI50 [8] 28.3 µM | GI50 [9] > 31.6 µM | GI50 [10] 24.2 µM | GI50 [11] 9.55 µM | GI50 [12] 4.36 µM | GI50 [13] 8.51 µM | GI50 [14] 2.92 µM | GI50 [15] 6.92 µM | GI50 [16] 7.33 µM | GI50 [17] > 100 µM | GI50 [18] 50.8 µM | GI50 [19] > 82 µM | GI50 [20] > 28.9 µM | GI50 [21] > 31.6 µM | GI50 [22] > 100 µM | GI50 [23] 5.75 µM | GI50 [24] 1.58 µM | GI50 [25] 2.94 µM | GI50 [26] 8.4 µM | GI50 [27] > 74 µM | GI50 [28] 5.11 µM | GI50 [29] 7.9 µM | GI50 [30] 21.4 µM | GI50 [31] > 28.5 µM | GI50 [32] 5.26 µM | GI50 [33] > 100 µM | GI50 [34] 22.3 µM | GI50 [35] > 100 µM | GI50 [36] > 28.8 µM | GI50 [37] 4.29 µM | GI50 [38] > 26.8 µM | GI50 [39] 5.36 µM | GI50 [40] 2.08 µM | GI50 [41] > 100 µM | GI50 [42] > 31.6 µM | GI50 [43] 24.3 µM | GI50 [44] 2.44 µM | GI50 [45] > 100 µM | GI50 [46] 1.85 µM | GI50 [47] 1.64 µM | GI50 [48] 4.99 µM | GI50 [49] > 31.6 µM | GI50 [50] > 31.6 µM | GI50 [51] > 31.6 µM | GI50 [52] > 31.6 µM | GI50 [53] 98.7 µM | GI50 [54] > 100 µM
27.8 µM: TGI [26]
11.5 µM: TGI [12]
